Data reported in patent US7981903B2, “2-[2-{phenylamino}-1H-pyrrolo[2,3-D]pyrimidin-4-yl)amino] benzamide derivatives as IGF-1R inhibitors for the treatment of cancer” (GlaxoSmithKline LLC, priority 2007, dated 2011).

What was measured:
[1] = target: T1, NIH-3T3 cells overexpressing human IR (Homo sapiens, UniProt P06213); assay: IR cellular autophosphorylation (DELFIA); assay type: cell-based; details: 2 h compound, insulin 3 ug/ml for 15 minutes, IC50 category
T1 construct: expressed in transfected cells; host or cells: NIH-3T3 (mouse fibroblasts)
Protocol: (§1) NIH-3T3 cells overexpressing human IGF-1R or IR were plated in 96-well plates (10,000 cells/well) in culture media containing 10% fetal bovine serum and incubated at 37° C. in a 5% CO2 incubator. Twenty four hours post-plating, cells were treated with different concentrations of test compounds ranging from 30 uM to 1.5 nM. Two hours after compound addition, cells were stimulated with either human IGF-1 (30 ng/ml) or insulin (3 ug/ml) for 15 minutes. Cell lysates are analyzed for phosphorylated receptors using dissociation enhanced lanthanide fluor-immuno assay (DELFIA) with anti-IGF-1R (MAB391, R&D Systems, Minneapolis, Minn.) or anti-IRβ (sc-711, Santa Cruz Biotechnology, Santa Cruz, Calif.) capture antibody and europium-labeled anti-pTyr antibody (Eu-N1 PT66, Perkin Elmer, Waltham, Mass.) for detection. The fluorescence signal for cells treated with compounds was expressed as percent relative to 100% stimulation (IGF-1 or insulin stimulated signal).

human IGF1R (hIGF1R) = target: T2, human IGF1R (hIGF1R) (Homo sapiens, UniProt P08069); assay: TR-FRET kinase assay of purified hIGF1R; assay type: biochemical; details: activated hIGF1R 0.5 nM, 10 μM ATP, values given as pIC50 category, read-out: IGF-1R pIC50 (converted)
T2 construct: containing amino acid residues 957-1367 of human IGF1R; made in house; host or cells: Sf9 cells (baculovirus)

ALK = ALK (Homo sapiens, UniProt Q9UM73); assay: ALK enzyme assay (HTRF); assay type: biochemical; details: 0.25 nM ALK, 15.0 μM ATP, values given as pIC50 category
Method in brief: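 Isolated ALK phosphorylates a biotinylated tyrosine peptide, 120 min at 20° C; anti-phosphotyrosine Eu-cryptate/streptavidin-XL665 HTRF read after 60 min with EDTA-containing detection mix.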

[2] = target: T3, NIH-3T3 cells overexpressing human IGF-1R (Homo sapiens, UniProt P08069); assay: IGF-1R cellular autophosphorylation (DELFIA); assay type: cell-based
T3 construct: expressed in transfected cells; host or cells: NIH-3T3 (mouse fibroblasts)
Protocol: as §1

human IR (hIR) = target: T4, human IR (hIR) (Homo sapiens, UniProt P06213); assay: TR-FRET kinase assay of purified hIR; assay type: biochemical; details: activated hIR 0.5 nM, 10 μM ATP, values given as pIC50 category
T4 construct: containing amino acid residues 979-1382 of human IR; made in house; host or cells: Sf9 cells (baculovirus), same process as hIGF1R

Colo205 = assay: Inhibition of cell proliferation (CellTiter-Glo or InCell analyzer), Colo205; assay type: cell-based; details: Homo sapiens, COLO 205, 72 h / 3 days, values given as IC50 category
Protocol: Cell proliferation was measured by either CellTiter-Glo (measures cellular ATP level as a surrogate for total cell number) or by InCell analyzer (counts number of nuclei as a measure of cell number).
For CellTiter-Glo assay, exponentially growing cell lines of different tumor origins, cultured in appropriate media containing 10% fetal bovine serum at 37° C. in a 5% CO2 incubator, were plated at low density (less than 2000cells/well) in 96-well plates. Twenty four hours post-plating, cells were treated with different concentrations of test compounds ranging from 30 uM to 1.5 nM. Several wells were left untreated as a control. Seventy two hours post-treatment, cell numbers were determined using 50-100 ul per well of CellTiter-Glo (Promega #G7573). Plates were incubated at 37° C. for 30 minutes and the chemiluminescent signal was read on the Victor V or Envison 2100 reader.
For InCell Analyser assay, various cell lines of different tumor origins were grown to 70-80% confluency in appropriate culture media containing 10% fetal bovine serum at 37° C. in a 5% CO2 incubator. On day −1, cells were seeded at 2 densities in 384-well plates and incubated at 37° C. overnight. Stock compound plates were prepared in advance which contained dimethyl sulfoxide (DMSO) alone and a 9-point half-log decreasing dose range of the compound in DMSO. The compound plates were stored at −80° C. and each plate was only thawed once and used. On day 0, the main assay plates received compound or DMSO via a sonic delivery system (ECHO). The highest final concentration of compound of the dose range in the culture plates was 10 uM. These plates were cultured at 37° C. for 3 days. […] On day 3, the compound treated plates were stained and fixed to measure proliferation, apoptosis, and mitotic index using an InCelL1000 analyser. A nuclear stain was used to identify cells in the wells. By counting the number of nuclei, the proliferation index of compound treated groups were calculated as a percentage relative to the DMSO control, which was set to 100%. The IC50 values were calculated using model 205 in ExcelFit.
IC50 (nM) values for compounds of select examples were categorized by relative inhibition of cell proliferation.

ALK, sequence (Q9UM73 19-1620): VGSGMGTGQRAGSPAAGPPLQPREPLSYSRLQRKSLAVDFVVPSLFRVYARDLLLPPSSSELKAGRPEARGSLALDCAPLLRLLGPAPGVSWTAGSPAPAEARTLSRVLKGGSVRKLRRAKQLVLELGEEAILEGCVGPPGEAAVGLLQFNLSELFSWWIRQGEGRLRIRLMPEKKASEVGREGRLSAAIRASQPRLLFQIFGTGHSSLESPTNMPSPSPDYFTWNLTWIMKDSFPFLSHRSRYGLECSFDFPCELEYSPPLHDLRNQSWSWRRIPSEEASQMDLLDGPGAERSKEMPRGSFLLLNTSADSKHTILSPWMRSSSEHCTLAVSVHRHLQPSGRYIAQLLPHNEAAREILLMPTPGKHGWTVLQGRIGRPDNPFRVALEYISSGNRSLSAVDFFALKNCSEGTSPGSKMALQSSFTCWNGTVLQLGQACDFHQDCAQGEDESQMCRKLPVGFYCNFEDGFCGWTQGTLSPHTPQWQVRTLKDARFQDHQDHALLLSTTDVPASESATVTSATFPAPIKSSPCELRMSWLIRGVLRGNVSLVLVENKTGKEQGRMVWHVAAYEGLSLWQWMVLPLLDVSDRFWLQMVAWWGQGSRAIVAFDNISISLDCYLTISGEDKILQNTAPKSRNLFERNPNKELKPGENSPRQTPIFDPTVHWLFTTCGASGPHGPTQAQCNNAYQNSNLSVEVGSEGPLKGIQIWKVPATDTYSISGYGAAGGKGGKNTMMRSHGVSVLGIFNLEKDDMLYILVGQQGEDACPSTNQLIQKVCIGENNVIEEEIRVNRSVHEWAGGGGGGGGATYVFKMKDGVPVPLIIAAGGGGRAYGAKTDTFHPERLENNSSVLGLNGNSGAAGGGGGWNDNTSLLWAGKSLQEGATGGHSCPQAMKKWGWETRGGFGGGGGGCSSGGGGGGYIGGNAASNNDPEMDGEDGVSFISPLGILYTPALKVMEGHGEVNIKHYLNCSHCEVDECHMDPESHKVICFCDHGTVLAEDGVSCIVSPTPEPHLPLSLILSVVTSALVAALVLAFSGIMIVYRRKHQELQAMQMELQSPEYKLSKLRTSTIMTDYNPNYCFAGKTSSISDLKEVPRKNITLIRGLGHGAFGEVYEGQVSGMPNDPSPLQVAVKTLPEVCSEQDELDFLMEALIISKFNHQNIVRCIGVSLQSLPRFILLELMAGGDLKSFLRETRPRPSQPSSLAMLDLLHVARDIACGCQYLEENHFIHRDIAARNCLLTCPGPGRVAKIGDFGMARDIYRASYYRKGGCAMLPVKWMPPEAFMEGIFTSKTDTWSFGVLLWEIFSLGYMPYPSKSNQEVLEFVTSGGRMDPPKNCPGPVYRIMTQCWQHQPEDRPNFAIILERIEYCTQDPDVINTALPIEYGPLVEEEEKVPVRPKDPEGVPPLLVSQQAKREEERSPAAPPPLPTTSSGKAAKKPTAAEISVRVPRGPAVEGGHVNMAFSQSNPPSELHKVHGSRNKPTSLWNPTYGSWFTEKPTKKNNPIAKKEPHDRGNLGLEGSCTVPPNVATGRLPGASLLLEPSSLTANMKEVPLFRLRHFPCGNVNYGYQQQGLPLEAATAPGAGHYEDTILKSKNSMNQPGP
T1 sequence (P06213 28-1382): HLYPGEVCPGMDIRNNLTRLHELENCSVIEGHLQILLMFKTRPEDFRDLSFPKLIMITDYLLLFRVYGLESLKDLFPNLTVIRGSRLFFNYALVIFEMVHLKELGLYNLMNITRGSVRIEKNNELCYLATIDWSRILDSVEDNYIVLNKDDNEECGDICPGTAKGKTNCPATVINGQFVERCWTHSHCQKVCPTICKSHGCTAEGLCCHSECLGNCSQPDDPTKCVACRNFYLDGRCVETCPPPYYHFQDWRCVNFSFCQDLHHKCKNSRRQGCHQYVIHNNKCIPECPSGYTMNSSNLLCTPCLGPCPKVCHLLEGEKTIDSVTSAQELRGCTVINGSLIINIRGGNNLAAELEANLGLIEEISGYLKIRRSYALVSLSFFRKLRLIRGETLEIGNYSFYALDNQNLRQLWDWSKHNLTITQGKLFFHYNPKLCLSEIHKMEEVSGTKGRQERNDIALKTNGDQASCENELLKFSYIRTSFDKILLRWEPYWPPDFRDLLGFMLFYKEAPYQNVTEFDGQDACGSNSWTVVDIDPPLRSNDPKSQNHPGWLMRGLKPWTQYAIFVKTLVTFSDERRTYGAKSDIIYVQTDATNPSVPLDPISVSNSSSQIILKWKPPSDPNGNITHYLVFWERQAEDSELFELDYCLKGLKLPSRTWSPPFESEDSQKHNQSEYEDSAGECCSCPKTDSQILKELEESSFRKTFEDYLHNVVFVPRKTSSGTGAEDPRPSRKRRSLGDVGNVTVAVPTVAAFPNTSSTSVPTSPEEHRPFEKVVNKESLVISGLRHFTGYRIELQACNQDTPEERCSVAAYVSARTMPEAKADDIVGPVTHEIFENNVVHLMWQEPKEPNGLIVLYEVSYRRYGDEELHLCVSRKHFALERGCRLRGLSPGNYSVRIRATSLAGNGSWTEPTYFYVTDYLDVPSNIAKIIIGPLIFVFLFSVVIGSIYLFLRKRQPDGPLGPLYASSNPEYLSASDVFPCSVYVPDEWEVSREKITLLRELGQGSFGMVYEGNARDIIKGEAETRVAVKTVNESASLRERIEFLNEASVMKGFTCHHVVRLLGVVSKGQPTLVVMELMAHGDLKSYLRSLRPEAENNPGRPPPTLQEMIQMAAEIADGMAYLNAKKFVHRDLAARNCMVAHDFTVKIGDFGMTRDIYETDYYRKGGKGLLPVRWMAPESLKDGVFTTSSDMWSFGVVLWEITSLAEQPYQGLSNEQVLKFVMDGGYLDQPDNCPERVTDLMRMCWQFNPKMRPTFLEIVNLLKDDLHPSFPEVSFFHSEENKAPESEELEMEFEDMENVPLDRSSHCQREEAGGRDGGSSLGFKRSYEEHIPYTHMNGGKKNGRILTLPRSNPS
T3 sequence (P08069 31-1367): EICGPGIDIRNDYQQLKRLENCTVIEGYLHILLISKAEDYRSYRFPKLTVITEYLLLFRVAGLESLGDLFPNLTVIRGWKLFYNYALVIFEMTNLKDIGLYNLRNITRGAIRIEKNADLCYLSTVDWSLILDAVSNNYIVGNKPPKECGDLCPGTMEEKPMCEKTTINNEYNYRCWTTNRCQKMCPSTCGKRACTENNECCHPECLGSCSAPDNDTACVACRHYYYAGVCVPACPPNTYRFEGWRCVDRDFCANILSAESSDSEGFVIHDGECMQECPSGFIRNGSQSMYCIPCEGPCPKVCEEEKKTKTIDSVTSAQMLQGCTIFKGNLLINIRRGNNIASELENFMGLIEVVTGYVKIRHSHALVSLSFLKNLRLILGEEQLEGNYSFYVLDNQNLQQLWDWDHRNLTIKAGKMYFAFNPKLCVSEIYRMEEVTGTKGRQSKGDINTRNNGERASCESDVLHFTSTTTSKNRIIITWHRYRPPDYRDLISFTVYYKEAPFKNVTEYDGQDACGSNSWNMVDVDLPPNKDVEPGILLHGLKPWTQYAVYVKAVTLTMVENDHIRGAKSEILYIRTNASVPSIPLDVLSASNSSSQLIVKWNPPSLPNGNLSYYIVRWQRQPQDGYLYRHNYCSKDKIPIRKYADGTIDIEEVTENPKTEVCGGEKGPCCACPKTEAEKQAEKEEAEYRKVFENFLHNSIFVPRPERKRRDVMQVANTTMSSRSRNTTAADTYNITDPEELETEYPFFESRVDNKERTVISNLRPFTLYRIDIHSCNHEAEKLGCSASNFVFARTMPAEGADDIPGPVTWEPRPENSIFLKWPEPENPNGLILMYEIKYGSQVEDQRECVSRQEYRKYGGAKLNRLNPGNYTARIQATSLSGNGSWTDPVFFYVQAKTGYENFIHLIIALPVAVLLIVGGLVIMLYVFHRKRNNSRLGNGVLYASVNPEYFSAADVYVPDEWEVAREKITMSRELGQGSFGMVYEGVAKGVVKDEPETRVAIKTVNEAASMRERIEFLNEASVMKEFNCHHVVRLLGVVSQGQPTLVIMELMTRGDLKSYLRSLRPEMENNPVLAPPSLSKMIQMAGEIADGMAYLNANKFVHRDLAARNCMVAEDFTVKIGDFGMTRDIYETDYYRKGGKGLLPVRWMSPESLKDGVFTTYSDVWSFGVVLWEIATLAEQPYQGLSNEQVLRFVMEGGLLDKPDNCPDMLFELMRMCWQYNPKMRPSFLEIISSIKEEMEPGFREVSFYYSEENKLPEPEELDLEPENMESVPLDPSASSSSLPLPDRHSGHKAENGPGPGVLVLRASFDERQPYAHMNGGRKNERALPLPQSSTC
T4 sequence (P06213 979-1382): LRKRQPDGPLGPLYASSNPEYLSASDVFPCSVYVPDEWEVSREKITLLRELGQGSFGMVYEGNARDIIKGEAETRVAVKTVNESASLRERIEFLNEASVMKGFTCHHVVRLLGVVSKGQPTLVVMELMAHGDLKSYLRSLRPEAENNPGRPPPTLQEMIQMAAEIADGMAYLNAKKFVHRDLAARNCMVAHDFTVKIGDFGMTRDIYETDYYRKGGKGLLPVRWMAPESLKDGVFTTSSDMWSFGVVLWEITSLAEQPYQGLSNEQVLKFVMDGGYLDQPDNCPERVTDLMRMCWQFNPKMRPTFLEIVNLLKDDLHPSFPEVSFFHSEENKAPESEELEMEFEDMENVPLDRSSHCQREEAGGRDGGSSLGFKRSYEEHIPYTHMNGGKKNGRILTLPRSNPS
T2 sequence (P08069 957-1367): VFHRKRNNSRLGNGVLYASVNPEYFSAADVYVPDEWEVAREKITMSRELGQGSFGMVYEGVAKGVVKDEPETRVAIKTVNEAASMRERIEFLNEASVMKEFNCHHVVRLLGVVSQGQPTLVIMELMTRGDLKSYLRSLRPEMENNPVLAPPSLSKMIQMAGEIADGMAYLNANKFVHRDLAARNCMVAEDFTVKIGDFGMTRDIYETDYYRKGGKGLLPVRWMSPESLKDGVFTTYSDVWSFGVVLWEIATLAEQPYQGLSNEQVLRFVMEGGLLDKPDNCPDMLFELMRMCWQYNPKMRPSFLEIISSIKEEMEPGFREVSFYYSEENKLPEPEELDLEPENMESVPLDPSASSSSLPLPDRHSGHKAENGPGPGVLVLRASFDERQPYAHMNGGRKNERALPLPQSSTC

Row | IC50 [1] [nM] | IC50 (human IGF1R (hIGF1R)) [nM] | IC50 (ALK) [nM] | IC50 [2] [nM] | IC50 (human IR (hIR)) [nM] | IC50 (Colo205) [nM] | SMILES
1 | 100 to 500 | 1.26 to 3.98 | 0.251 to 1 | 100 to 500 |  |  | CCCN1CCCC(c2ccc(Nc3nc(Nc4ccccc4C(=O)NC)c4cc[nH]c4n3)c(OC)c2)C1 (centres unmarked) [Example 24, N-methyl-2-[(2-{[2-(methyloxy)-4-(1-propyl-3-piperidinyl)phenyl]amino}-1H-pyrrolo[2,3-d]pyrimidin-4-yl)amino]benzamide]
2 | > 500 | 1.26 to 3.98 | 5.01 to 200 |  | 0.251 to 1 |  | Cc1ccc(NC(=O)CN(C)C)cc1Nc1nc(Nc2cc3ccccc3cc2C(N)=O)c2cc[nH]c2n1 [Example 30, 3-{[2-({5-[(N,N-dimethylglycyl)amino]-2-methylphenyl}amino)-1H-pyrrolo[2,3-d]pyrimidin-4-yl]amino}-2-naphthalenecarboxamide]
3 |  | 1.26 to 3.98 | 1.26 to 3.98 | < 100 |  | < 250 | COc1cc(N2CCN(C(C)C)CC2)c(OC)cc1Nc1nc(Nc2cccc(F)c2C(N)=O)c2cc[nH]c2n1 [Example 47, 2-fluoro-6-[(2-{[4-[4-(1-methylethyl)-1-piperazinyl]-2,5-bis(methyloxy)phenyl]amino}-1H-pyrrolo[2,3-d]pyrimidin-4-yl)amino]benzamide]
4 | 100 to 500 |  | 0.251 to 1 | 100 to 500 | 0.251 to 1 |  | COc1cc(C2=CCCN(C)C2)ccc1Nc1nc(Nc2ccc(F)cc2C(N)=O)c2cc[nH]c2n1 [Example 55, 5-fluoro-2-[(2-{[2-(methyloxy)-4-(1-methyl-1,2,5,6-tetrahydro-3-pyridinyl)phenyl]amino}-1H-pyrrolo[2,3-d]pyrimidin-4-yl)amino]benzamide]
5 |  | 0.251 to 1 | 1.26 to 3.98 | 100 to 500 | 0.251 to 1 |  | CN(C)CC(=O)Nc1ccc(OC(F)(F)F)c(Nc2nc(Nc3ccc(F)cc3C(N)=O)c3cc[nH]c3n2)c1 [Example 63, 2-{[2-({5-[(N,N-dimethylglycyl)amino]-2-[(trifluoromethyl)oxy]phenyl}amino)-1H-pyrrolo[2,3-d]pyrimidin-4-yl]amino}-5-fluorobenzamide]
6 |  | 1.26 to 3.98 | 1.26 to 3.98 | < 100 |  | 250 to 1000 | COc1ccc(OCCCN(C)C)cc1Nc1nc(Nc2ccc(F)cc2C(N)=O)c2cc[nH]c2n1 [Example 64, 2-[(2-{[5-{[3-(dimethylamino)propyl]oxy}-2-(methyloxy)phenyl]amino}-1H-pyrrolo[2,3-d]pyrimidin-4-yl)amino]-5-fluorobenzamide]
7 |  | 1.26 to 3.98 | 1.26 to 3.98 | 100 to 500 |  | 250 to 1000 | CCCN1CCC=C(c2ccc(Nc3nc(Nc4cc(F)ccc4C(=O)NCC(N)=O)c4cc[nH]c4n3)c(OC)c2)C1 [Example 67, N-(2-amino-2-oxoethyl)-4-fluoro-2-[(2-{[2-(methyloxy)-4-(1-propyl-1,2,5,6-tetrahydro-3-pyridinyl)phenyl]amino}-1H-pyrrolo[2,3-d]pyrimidin-4-yl)amino]benzamide]
8 | < 100 | 0.251 to 1 |  | 100 to 500 | 0.251 to 1 |  | COc1cc(N2CCN(C(C)C)CC2)ccc1Nc1nc(Nc2cc(F)ccc2C(N)=O)c2cc[nH]c2n1 [Example 79, 4-fluoro-2-[(2-{[4-[4-(1-methylethyl)-1-piperazinyl]-2-(methyloxy)phenyl]amino}-1H-pyrrolo[2,3-d]pyrimidin-4-yl)amino]benzamide]
9 |  | 1.26 to 3.98 | 5.01 to 200 | > 500 | 0.251 to 1 |  | Cc1ccc(NC(=O)CN(C)C)cc1Nc1nc(Nc2cc(F)ccc2C(N)=O)c2cc[nH]c2n1 [Example 85, 2-{[2-({5-[(N,N-dimethylglycyl)amino]-2-methylphenyl}amino)-1H-pyrrolo[2,3-d]pyrimidin-4-yl]amino}-4-fluorobenzamide]
10 |  | 0.251 to 1 | 0.251 to 1 | 100 to 500 | 0.251 to 1 |  | CCCN1CCC=C(c2ccc(Nc3nc(Nc4cc(F)c(F)cc4C(N)=O)c4cc[nH]c4n3)c(OC)c2)C1 [Example 95, 4,5-difluoro-2-[(2-{[2-(methyloxy)-4-(1-propyl-1,2,5,6-tetrahydro-3-pyridinyl)phenyl]amino}-1H-pyrrolo[2,3-d]pyrimidin-4-yl)amino]benzamide]
11 |  | 0.251 to 1 | 0.251 to 1 | < 100 | 0.251 to 1 |  | COc1cc(C2=CCCN(C(C)C)C2)ccc1Nc1nc(Nc2cc(F)c(F)cc2C(N)=O)c2cc[nH]c2n1 [Example 96, 4,5-difluoro-2-[(2-{[4-[1-(1-methylethyl)-1,2,5,6-tetrahydro-3-pyridinyl]-2-(methyloxy)phenyl]amino}-1H-pyrrolo[2,3-d]pyrimidin-4-yl)amino]benzamide]
12 |  | 0.251 to 1 | 0.251 to 1 | < 100 | 0.251 to 1 |  | COc1cc(N2CCN(C(C)C)CC2)ccc1Nc1nc(Nc2cc(F)c(F)cc2C(N)=O)c2cc[nH]c2n1 [Example 102, 4,5-difluoro-2-[(2-{[4-[4-(1-methylethyl)-1-piperazinyl]-2-(methyloxy)phenyl]amino}-1H-pyrrolo[2,3-d]pyrimidin-4-yl)amino]benzamide]
13 |  | 1.26 to 3.98 | 5.01 to 200 | > 500 | 0.251 to 1 |  | Cc1ccc(NC(=O)CN(C)C)cc1Nc1nc(Nc2cc(F)c(F)cc2C(N)=O)c2cc[nH]c2n1 [Example 106, 2-{[2-({5-[(N,N-dimethylglycyl)amino]-2-methylphenyl}amino)-1H-pyrrolo[2,3-d]pyrimidin-4-yl]amino}-4,5-difluorobenzamide]
14 |  | 1.26 to 3.98 | 5.01 to 200 | > 500 | 1.26 to 3.98 |  | Cc1ccc(NC(=O)CN(C)C)cc1Nc1nc(Nc2cc(Cl)ccc2C(N)=O)c2cc[nH]c2n1 [Example 111]
15 |  | 5.01 to 200 | 5.01 to 200 | > 500 | 5.01 to 158 |  | CNC(=O)c1c(F)cccc1Nc1nc(Nc2cc3c(cc2OC)C[C@@H](C)N3C(=O)CN(C)C)nc2[nH]ccc12 [Example 250, 2-[(2-{[(2R)-1-(N,N-dimethylglycyl)-2-methyl-5-(methyloxy)-2,3-dihydro-1H-indol-6-yl]amino}-1H-pyrrolo[2,3-d]pyrimidin-4-yl)amino]-6-fluoro-N-methylbenzamide]
16 | < 100 | 0.251 to 1 |  | < 100 | 0.251 to 1 |  | CNC(=O)c1c(F)cccc1Nc1nc(Nc2cc3c(cc2OC)CCCN3C(=O)CN(C)C)nc2[nH]cc(C)c12 [Example 260, 2-[(2-{[1-(N,N-dimethylglycyl)-6-(methyloxy)-1,2,3,4-tetrahydro-7-quinolinyl]amino}-5-methyl-1H-pyrrolo[2,3-d]pyrimidin-4-yl)amino]-6-fluoro-N-methylbenzamide]
17 | < 100 | 0.251 to 1 |  | < 100 | 0.251 to 1 |  | COc1cc2c(cc1Nc1nc(Nc3cccc(F)c3C(N)=O)c3c(C)c[nH]c3n1)N(C(=O)CN(C)C)CCC2 [Example 261, 2-[(2-{[1-(N,N-dimethylglycyl)-6-(methyloxy)-1,2,3,4-tetrahydro-7-quinolinyl]amino}-5-methyl-1H-pyrrolo[2,3-d]pyrimidin-4-yl)amino]-6-fluorobenzamide]
